Experimental data published in article PMC12278645, “Design, synthesis, and antitumor activity of novel thioheterocyclic nucleoside derivatives by suppressing the c-MYC pathway” (Acta Pharmaceutica Sinica. B, 2025).

How the values were obtained:
HeLa cells = experiment: CCK-8 anti-proliferation assay, HeLa; format: cell-based, human; conditions: Homo sapiens, HeLa, 48 h, CCK-8, 48 h, mean ± SD, three independent experiments
Protocol: Tumor cell anti-proliferation activities were determined by cell counting kit-8 (CCK-8) assay.
(§1) MCF-7, A375, and HeLa cells were cultured in DMEM, HCT116 cells were cultured in McCoy's 5A medium, and DU145 and CT26 were cultured in RPMI 1640 with 10% FBS, 1% penicillin-streptomycin solution (10,000 U/mL penicillin and 10,000 μg/mL streptomycin) at 37 °C under 5% CO2. The cells were seeded in 96-well plates (4 × 10^3 cells/well) overnight and then treated with various concentrations (1–50 μmol/L) of the compound. After 48 h, the cell viability was measured by CCK-8 assay. The absorbance of each well was measured using a microplate reader (Multiskan FC, Thermo Fisher Scientific, Massachusetts, USA) at 450 nm wavelength. Assays were performed in triplicate. Compound concentrations that inhibited cell growth by 50% (IC50) were calculated from the dose–response curves of each cell line. Data are mean ± SD values from three independent experiments.

[1] = system: A375 (human malignant melanoma); experiment: CCK-8 anti-proliferation assay, A375; format: cell-based; conditions: Homo sapiens, A-375; CCK-8, 48 h, mean ± SD
Protocol: To evaluate their spectrum of anti-proliferative activity, further CCK-8 assays were carried out with the selected compounds (5a/5b, 8a/8b, 33a/33b, and 36a/36b) on MCF-7 (human breast cancer), A375 (human malignant melanoma), DU145 (human prostate cancer), and CT26 (mouse colon cancer) cell lines. The selected compounds had moderate to potent antitumor activity on the four cell lines, indicating their broad spectrum of antitumor activity (Table 5).
as §1

HCT116 cells [2] = experiment: Colony formation; format: cell-based, human; conditions: 48 h treatment, then 14 days
Protocol: HCT116 cells were seeded in 6-well plates (1.5 × 10^3 cells/well). Various concentrations of compound 33a or 36b were added to the wells for 48 h. The culture medium was changed every 72 h, at the end of 14 days, cells were fixed with methanol for 30 min and stained with 0.1% crystal violet staining solution for 30 min at room temperature, then washed three times in PBS and allowed to dry. Photographs were then taken.

HCT116 cells [3] = experiment: EdU assay; format: cell-based, human; conditions: 48 h
Protocol: HCT116 cells were seeded in 96-well plates (4 × 10^4 cells/well) overnight and then the cells were treated with various concentrations of compound 33a or 36b. After 48 h, the experiment operation process was performed according to the manufacturer's instructions. Images were obtained with a Leica DMIL fluorescence microscope (Leica Microsystems, Wetzlar, Germany).

HCT116 cells [4] = experiment: Transwell invasion assay; format: cell-based, human; conditions: 24 h
Protocol: A transwell chamber (24-well) (Corning, New York, USA) was coated with Matrigel (BD Biosciences, New Jersey, USA), and 1 × 10^5 cells per well were seeded in the upper chamber in serum-free medium and treated with defined doses of compound 33a or 36b. The complete medium was placed in the lower chamber. After 24 h, the cells penetrating through the pores were stained with 0.1% crystal violet solution and observed with a Leica DMIL fluorescence microscope (Leica Microsystems).

HCT116 cells [5] = experiment: Cell apoptosis (Annexin V-FITC/PI, flow cytometry); format: cell-based, human; conditions: 48 h
Protocol: HCT116 cells were seeded in 6-well plates (4 × 10^5 cells/well). The following day, defined concentrations of compound 33a or 36b were added to the wells for 48 h at 37 °C with 5% CO2. The cells were collected and stained with Annexin V-FITC and PI for 15 min at room temperature. Apoptotic cells were analyzed with flow cytometry (BD Bioscience).

HCT116 cells [6] = experiment: Autophagy (Western blot of P62, LC3, Beclin1; TEM; MDC staining); format: cell-based, human; conditions: 48 h
Protocol: Whole protein was extracted and separated by polyacrylamide gel electrophoresis (SDS-PAGE) and transferred onto nitrocellulose membranes. Membranes were blotted with CDK1, Cyclin B1, Caspase-3, BAX, BCL-2, PARP-1, γ-H2AX, P53, ATF4, CHOP, PERK, ATP6, LC3, Beclin1, P62, β-Catenin, c-MYC, MAX, UPP1, GAPDH, β-Actin, and β-Tubulin primary antibodies. Protein band analyses were performed with ImageJ software and protein expression levels were presented as a percentage difference compared to control.

HCT116 cells [7] = experiment: RNA-sequencing analysis; format: cell-based, human; conditions: 48 h
Protocol: Total RNA was isolated from the HCT11 cells using Trizol (Invitrogen Life Technologies Corporation, Carlsbad, USA), cDNA synthesis followed by adaptor ligation and enrichment according to the instructions. The purified library products were evaluated using Illumina NovaSeq 6000 (paired-end 150 bp).

c-MYC [8] = target: T1, c-MYC (Homo sapiens, UniProt P01106); experiment: Surface plasmon resonance (SPR) assay; format: binding; conditions: c-MYC immobilized on CM5 chip, 25 °C
T1 sequence (P01106 whole entry): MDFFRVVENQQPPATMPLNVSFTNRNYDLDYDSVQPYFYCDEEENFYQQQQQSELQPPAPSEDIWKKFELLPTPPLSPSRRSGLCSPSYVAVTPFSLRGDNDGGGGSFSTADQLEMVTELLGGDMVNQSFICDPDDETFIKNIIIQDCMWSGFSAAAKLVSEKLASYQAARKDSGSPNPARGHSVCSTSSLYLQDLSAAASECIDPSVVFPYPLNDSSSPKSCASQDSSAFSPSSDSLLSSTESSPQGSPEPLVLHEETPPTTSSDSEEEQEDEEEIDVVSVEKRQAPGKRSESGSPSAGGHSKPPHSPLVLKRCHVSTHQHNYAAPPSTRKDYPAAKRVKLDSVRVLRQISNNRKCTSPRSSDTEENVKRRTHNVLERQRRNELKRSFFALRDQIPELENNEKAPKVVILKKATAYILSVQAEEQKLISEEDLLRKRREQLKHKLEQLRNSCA
Protocol: SPR analyses to evaluate the interaction of thioheterocyclic nucleoside derivatives with c-MYC immobilized onto a CM5 sensor chip (Cytiva, BR100012, Sweden) were performed using a Biacore T200 apparatus (Cytiva, Sweden) at 25 °C. During the analyte–ligand interaction, the change of the refractive index was measured in real-time which allowed interaction results to be plotted as response units (RU) versus time.

c-MYC [9] = target: T1, c-MYC; experiment: Cellular thermal shift assay (CETSA); format: binding; set-up: HCT116 cells were lysed with mammalian protein extraction reagent (M-PER); endogenous in cells; host or cells: HCT116; conditions: 40-70 °C
Protocol: In short, the lysates were incubated with 33a or 36b or DMSO for 30 min. The […] were divided equally and individually heated at different temperatures (40–70 °C) for 3 min and then cooled on ice. After freeze-thawing twice with liquid nitrogen, the supernatant was centrifuged, collected, and boiled in a loading buffer. c-MYC protein was analyzed by Western blot.

Compound | IC50 (HeLa cells) | IC50 [1] | colony formation (HCT116 cells [2]) | EdU-positive cells (HCT116 cells [3]) | invasion (HCT116 cells [4]) | apoptosis (HCT116 cells [5]) | autophagy (HCT116 cells [6]) | genes significantly downregulated (HCT116 cells [7]; 0.8 μmol/L) | genes significantly upregulated (HCT116 cells [7]; 0.8 μmol/Lol/L) | Kd (c-MYC [8]) | thermal stability of c-MYC (c-MYC [9])
CCOC(=O)[C@]1(n2cnc3c(N4CCCCC4)nc(F)nc32)CSC[C@H]1O (racemic) [33a] | 8.73 ± 1.02 µM | 2.34 ± 0.12 µM | reduce the colony formation number in a dose-dependent manner | significantly fewer EdU-positive cells than in the control group | distinctly reduced the number of HCT116 cells passing through the matrix membrane | induced apoptosis in a dose-dependent manner | could inhibit autophagy in HCT116 | 221 | 265 | 42.9 µM | increase the thermal stability of c-MYC in HCT116 cells from 40 to 70 °C
CCCSc1nc(F)nc2c1ncn2[C@@]1(C(=O)OCC)CSC[C@@H]1O (relative stereo) [36b] | 6.35 ± 1.08 µM | 1.14 ± 0.17 µM | reduce the colony formation number in a dose-dependent manner | significantly fewer EdU-positive cells than in the control group | distinctly reduced the number of HCT116 cells passing through the matrix membrane | induced apoptosis in a dose-dependent manner | could up-regulate the protein levels of P62 but showed no obvious effect on LC3-II and Beclin1 |  |  | 206 µM | increase the thermal stability of c-MYC in HCT116 cells from 40 to 70 °C
